Experimental findings from patent US11541010B2, “Amphoteric liposomes comprising imino lipids” (BioNTech Delivery Technologies GmbH, priority 2009, dated 2023) are described below.

Molecules are shown by their SMILES. Entries after “also recorded” stand apart in the source; their conditions may differ.

Holding throughout (type): cell-based
Test [1] deals with HeLa cells. Kind of test: Serum resistant transfection, cationic lipids with phosphate lipid DOPA, HeLa IC50 (Example 15). The settings on record: liposomes of the cationic lipid in combination with phosphate lipid DOPA, PLK-1 siRNA. The protocol:
(§1) HeLa cells were obtained from DSMZ (German Collection of Micro Organism and Cell Cultures) and maintained in DMFM (Gibco-Invitrogen) and supplemented with 10% FCS. The cells were plated at a density of 2.5×10^4 cells/ml and cultivated in 100 μl medium at 37° C. under 5% CO2. After 16 h, the liposomes containing siRNA were diluted and 10 μl were added to the cells to yield final concentrations between 0.4 to 100 nM Plk1 or scrambled siRNA; 10 μl dilution buffer were also added to untreated cells and into wells without cells. Cell culture dishes were incubated for 72 h at 37° C. under 5% CO2
(§2) Cell proliferation/viability was determined by using the CellTiter-Blue Cell Viability assay (Promega, US) according to the instructions of the supplier.
Series of liposomes having C/A ratios of either 0.75 or 1 were produced and loaded with siRNA as in Example 5. The cationic lipid components were CHOLGUA, CHIM, DC-CHOL, GUADACA, MPDACA, BADACA, PONA, DOTAP or DODAP. The anionic lipid was DOPA and the cholesterol content was 40 mol %, all lipid mixtures are identified in table 20. Liposomes were further supplied with 1.5 mol % DMPE-PEG2000 (Nippon Oils and Fats).
HeLa cells were grown and maintained as in Example 2 and mouse serum (SIGMA-Aldrich) was added directly to the cells for 120-min. Following that, the liposomes were added to the cells, incubation was continued for 72 h and cell viability was determined as above. The efficacy of transfection is expressed here as IC50 (in nM of siRNA) as in Example 5.

Test [2] has as its system HeLa cells. The test is described as follows: Serum resistant transfection, DACA or cholesterol based cationic lipids with carboxyl lipids, HeLa (Example 14). The settings on record: for serum-resistant transfection of HeLa cells: liposomes of the cationic lipid with carboxyl lipid DOGS and cholesterol, PLK-1 siRNA, 10% mouse serum; for transfection of HeLa cells in the presence of mouse serum: liposomes of the cationic lipid with carboxyl lipids CHEMS, DMGS or DOGS, 20 or 40 mol % cholesterol. On the procedure: All liposomes were loaded with PLK-1 siRNA, an oligonucleotide capable of inhibiting the production of the cell cycle kinase PLK-1 and successful transfection was measured by inhibition of cell viability of the test cells (see also Haupenthai et al., int. J. Cancer (2007), 121:206-210. Unspecific inhibition of the cell viability, that is, cytotoxic effects, were monitored by control preparations comprising a non-targeting siRNA of the same general composition and in the same amounts.
The transfection of cells was followed in regular cell culture medium or with the additional presence of 10% mouse serum, a potent inhibitor of cellular uptake for many amphoteric liposomes. The efficacy of transfection is expressed as IC50, the concentration needed to achieve a 50% inhibition of the cell viability.
The ratio between the IC50 in regular medium and the IC50 upon addition of mouse serum is used as a metric for the inhibition of the cellular uptake by mouse serum. This ratio is 5 or higher for liposomes without specific targeting properties. It is 5 or lower for the liposomes of this invention; that is liposomes comprising charged imino groups in combination with negatively charged lipids.
Series of liposomes having systematically varied ratios between the cationic and anionic lipid components were produced and loaded with siRNA as in Example 5. The cationic lipid components were CHOLGUA, CHIM, DC-CHOL, TC-CHOL, GUADACA, MPDACA, BADACA end PDAGA. The anionic lipids were CHEMS, DMGS or DOGS and the cholesterol content was either 20 or 40 mol %, all lipid mixtures are identified in the data tables. Liposomes having a ratio of the cationic: anionic lipid of 1 or greater (C/A>=1) were further supplied with 1.5 mol % DMPE-PEG2000 (Nippon Oils and Fats).
HeLa cells were grown and maintained as in Example 2 and mouse serum (SIGMA-Aldrich) was added directly to the cells for 120 min. Following that, the liposomes were added to the cells, incubation was continued for 72 h and cell viability was determined as above. The highest concentrations of liposomes were 40 nM and 36 nM for experiments in the absence or presence of mouse serum, respectively. The efficacy of transfection is expressed here as IC50 (in nM siRNA) as in Example 5.

For test [3], the system named is HeLa cells. The test is described as follows: Criticality of the guanido head group, HeLa proliferation IC50 with and without sera (Example 6). The settings on record: mixtures comprising an excess of the anionic lipid CHEMS, 20% cholesterol. The protocol:
as §1, §2
Series of liposomes having systematically varied ratios between the cationic and anionic lipid components were produced and loaded with siRNA as in Example 5. The cationic lipid components were PONA, PONamine and PONammonium, the anionic lipid was CHEMS and the cholesterol content was fixed to 20 mol %. […]
HeLa cells were grown and maintained as in Example 2 and sera of human or mice origin (SIGMA-Aldrich) was added directly to the cells for 120 min. Following that, the liposomes were added to the cells in concentrations between 50 pM and 50 nM, incubation was continued for 72 h and cell viability was determined as above. […]

Consider `CC(C)CCC[C@@H](C)[C@H]1CC[C@H]2[C@@H]3CC=C4C[C@@H](OC(=O)NCCN(C)C)CC[C@]4(C)[C@H]3CC[C@]12C` [DC-CHOL, reference compound], for which the “transfection of HeLa cells in the presence of serum” value (“transfection … of serum” for short) with HeLa cells [1] was “did not result in any transfection in the presence of serum”. Moreover, in the test on HeLa cells [2], the “serum-resistant transfection of HeLa cells” value is listed as “still active in the absence, but no longer in the presence of mouse serum”.
For the compound `CCCCCCCC/C=C/CCCCCCCC(=O)NC(CC[N+](C)(C)C)C(=O)NCCCCCCCCCCCCCCCC` (centres unmarked) [PONammonium], the “transfection activity in the presence of sera” value with HeLa cells [3] is “remained inactive in the presence of sera”. The “transfection … of serum” value in the test with HeLa cells [1] is on record as “not PONammonium resulted in serum-resistant transfection”.
`CC(C)CCC[C@@H](C)[C@H]1CC[C@H]2[C@@H]3CC=C4C[C@@H](OC(=O)NCCNC(=N)N)CC[C@]4(C)[C@H]3CC[C@]12C` [CHOLGUA]: the “transfection … of serum” value with HeLa cells [1] is reported as “remain potent transfectants even in the presence of mouse serum”. In the test with HeLa cells [2], the “serum-resistant transfection of HeLa cells” value is “best serum-resistant transfection” and the “transfection of HeLa cells in the presence of mouse serum” value is on record as “remain potent transfectants even in the presence of mouse serum”.
Consider `CC(C)CCC[C@@H](C)[C@H]1CC[C@H]2[C@@H]3CCC4CC(OC(=O)NCCCn5ccnc5)CC[C@]4(C)[C@H]3CC[C@]12C` (some centres unmarked) [CHIM, reference compound], for which, in the test on HeLa cells [1], the “transfection … of serum” value is “did not result in any transfection in the presence of serum”.
On the same count and under the same terms, to `CCCCCCCC/C=C/CCCCCCCC(=O)NC(CCN)C(=O)NCCCCCCCCCCCCCCCC` (centres unmarked) [PONamine] belongs “resulted in serum-resistant transfection”.
In the case of `CCCCCCCC/C=C/CCCCCCCC(=O)NC(CCNC(=N)N)C(=O)NCCCCCCCCCCCCCCCC` (centres unmarked) [PONA, palmitoyl-oleoyl-nor-arginine], the “transfection … of serum” value in the test on HeLa cells [1] is “resulted in serum-resistant transfection; also recorded: remain potent transfectants even in the presence of mouse serum”. Besides, in the test with HeLa cells [2], the “transfection of HeLa cells in the presence of mouse serum” value was “remain potent transfectants even in the presence of mouse serum”.
